From ChEMBL document CHEMBL1150148, “Isolation and structure elucidation of an isoflavone and a sesterterpenoic acid from Henriettella fascicularis” (J Nat Prod, 2002)
pIC50: −log10 of the molar value.

Tests used:
Ishikawa [1] = assay: Antiestrogenic activity in human Ishikawa cells assessed as inhibition of estradiol-induced induction of alkaline phosphatase activity at 20 uM after 4 days by para-nitrophenol release assay; format: functional; settings: 96 h
Ishikawa [2] = assay: Estrogenic activity in human Ishikawa cells assessed as induction of alkaline phosphatase activity after 4 days by para-nitrophenol release assay; format: functional, cell-based; settings: 96 h
Ishikawa [3] = assay: Antiestrogenic activity in human Ishikawa cells assessed as inhibition of estradiol-induced induction of alkaline phosphatase activity after 4 days by para-nitrophenol release assay; format: functional, cell-based; settings: 96 h
Estrogen receptor = molecular target: T1, Estrogen receptor (Homo sapiens, UniProt P03372)
T1 sequence (P03372 whole entry): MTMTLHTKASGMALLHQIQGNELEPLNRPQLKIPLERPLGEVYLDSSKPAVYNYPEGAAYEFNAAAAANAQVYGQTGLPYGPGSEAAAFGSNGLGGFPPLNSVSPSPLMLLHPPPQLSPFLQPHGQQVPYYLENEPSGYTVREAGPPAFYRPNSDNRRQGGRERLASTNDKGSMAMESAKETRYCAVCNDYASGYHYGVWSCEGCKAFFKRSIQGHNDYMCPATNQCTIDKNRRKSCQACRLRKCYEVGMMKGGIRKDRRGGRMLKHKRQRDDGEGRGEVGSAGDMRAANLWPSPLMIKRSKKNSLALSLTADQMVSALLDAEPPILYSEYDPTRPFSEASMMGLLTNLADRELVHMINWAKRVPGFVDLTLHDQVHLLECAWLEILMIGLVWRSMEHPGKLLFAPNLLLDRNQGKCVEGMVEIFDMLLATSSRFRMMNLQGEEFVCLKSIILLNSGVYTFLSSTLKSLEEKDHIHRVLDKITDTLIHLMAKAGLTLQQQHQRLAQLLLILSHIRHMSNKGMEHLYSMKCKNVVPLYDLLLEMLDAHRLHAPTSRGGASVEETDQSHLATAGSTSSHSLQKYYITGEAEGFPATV

Estrogen receptor beta = Estrogen receptor beta (Homo sapiens, UniProt Q92731)
Chain of Estrogen receptor beta (Q92731 whole entry): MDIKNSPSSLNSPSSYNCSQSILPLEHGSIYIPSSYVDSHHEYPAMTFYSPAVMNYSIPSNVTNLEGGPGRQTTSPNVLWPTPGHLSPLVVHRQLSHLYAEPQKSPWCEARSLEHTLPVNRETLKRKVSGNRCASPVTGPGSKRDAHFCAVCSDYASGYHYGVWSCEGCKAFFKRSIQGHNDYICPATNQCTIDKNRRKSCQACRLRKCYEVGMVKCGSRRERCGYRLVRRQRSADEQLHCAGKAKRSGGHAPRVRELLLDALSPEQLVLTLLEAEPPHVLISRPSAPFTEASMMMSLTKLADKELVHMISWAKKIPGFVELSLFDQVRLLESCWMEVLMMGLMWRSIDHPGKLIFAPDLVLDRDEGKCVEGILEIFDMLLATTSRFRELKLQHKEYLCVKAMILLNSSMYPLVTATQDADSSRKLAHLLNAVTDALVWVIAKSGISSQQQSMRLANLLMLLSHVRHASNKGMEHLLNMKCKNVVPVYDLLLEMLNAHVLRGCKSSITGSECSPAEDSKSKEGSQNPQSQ
Description: Displacement of [3H]estradiol from human recombinant ERbeta

SMILES | inhibition at 20 µM (Ishikawa [1]) [%] | pIC50 (Ishikawa [2]) | pIC50 (Ishikawa [3]) | pIC50 (Estrogen receptor) | pIC50 (Estrogen receptor beta)
O=c1cc(-c2ccc(O)cc2)oc2cc(O)cc(O)c12 [APIGENIN] | 25 | – | – | – | –
O=c1c(-c2ccc(O)cc2)coc2cc(O)cc(O)c12 [GENISTEIN] | – | 6.29 | – | – | –
Cc1c(O)c(C)c2occ(-c3ccc(O)cc3)c(=O)c2c1O | – | < 4.70 | 4.98 | 4.99 | 6.06
